Activity calls are given as the source filed them. The rule behind the calls is not given here.
What was measured:
[1] = molecular target: T1, Janus Kinase (JAK) (Homo sapiens) (UniProt P52333+P23458+O60674+P29597); experiment: Inhibition of JAK-mediated interferon-gamma/anisomycin-induced Stat1 phosphorylation in human U937 cells by Phospho-Flow cytometry; type: cell-based; conditions: U-937
[2] = Inhibition of JAK-mediated IL6-induced Stat1 phosphorylation in BALB/c mouse B cells by Phospho-Flow cytometry; type: cell-based
[3] = Inhibition of JAK-mediated IL10-induced Stat3 phosphorylation in BALB/c mouse B cells by Phospho-Flow cytometry; type: cell-based
[4] = molecular target: T1, Janus Kinase (JAK) (Homo sapiens); experiment: Inhibition of JAK-mediated GM-CSF-induced Stat5 phosphorylation in human U937 cells by Phospho-Flow cytometry at 20 uM; type: cell-based; conditions: U-937
[5] = molecular target: T1, Janus Kinase (JAK) (Homo sapiens); experiment: Inhibition of JAK-mediated interferon-gamma-induced Stat1 phosphorylation in human U937 cells by Phospho-Flow cytometry at 20 uM; type: cell-based; conditions: U-937
MAP kinase p38 = MAP kinase p38 (Homo sapiens, UniProt O15264+Q15759+Q16539+P53778); experiment: Inhibition of anisomycin-induced p38 phosphorylation in human U937 cells by Phospho-Flow cytometry at 20 uM; type: cell-based; conditions: U-937
[6] = Inhibition of JAK-mediated IL4-induced Stat5 phosphorylation in BALB/c mouse CD11b-int macrophages by Phospho-Flow cytometry
[7] = Inhibition of JAK-mediated interferon-gamma-induced Stat1 phosphorylation in BALB/c mouse B cells by Phospho-Flow cytometry; type: cell-based
[8] = Inhibition of JAK-mediated IL6-induced Stat3 phosphorylation in BALB/c mouse B cells by Phospho-Flow cytometry; type: cell-based
[9] = Inhibition of JAK-mediated IL15-induced Stat5 phosphorylation in BALB/c mouse B cells by Phospho-Flow cytometry; type: cell-based
[10] = Inhibition of JAK-mediated IL7-induced Stat5 phosphorylation in BALB/c mouse B cells by Phospho-Flow cytometry; type: cell-based
[11] = Inhibition of JAK-mediated IL6-induced Stat3 phosphorylation in BALB/c mouse CD4+ T cells by Phospho-Flow cytometry; type: cell-based; conditions: T-cell
[12] = Inhibition of JAK-mediated IL15-induced Stat5 phosphorylation in BALB/c mouse CD4+ T cells by Phospho-Flow cytometry; type: cell-based; conditions: T-cell
[13] = Inhibition of JAK-mediated IL7-induced Stat5 phosphorylation in BALB/c mouse CD4+ T cells by Phospho-Flow cytometry; type: cell-based; conditions: T-cell
[14] = Inhibition of JAK-mediated IL4-induced Stat6 phosphorylation in BALB/c mouse CD4+ T cells by Phospho-Flow cytometry; type: cell-based; conditions: T-cell
[15] = Inhibition of JAK-mediated IL4-induced Stat5 phosphorylation in BALB/c mouse CD4+ T cells by Phospho-Flow cytometry; type: cell-based; conditions: T-cell
[16] = Inhibition of JAK-mediated IL6-induced Stat1 phosphorylation in BALB/c mouse CD8+ T cells by Phospho-Flow cytometry; type: cell-based; conditions: T-cell
[17] = Inhibition of JAK-mediated IL10-induced Stat3 phosphorylation in BALB/c mouse CD8+ T cells by Phospho-Flow cytometry; type: cell-based; conditions: T-cell
[18] = Inhibition of JAK-mediated IL6-induced Stat3 phosphorylation in BALB/c mouse CD8+ T cells by Phospho-Flow cytometry; type: cell-based; conditions: T-cell
[19] = Inhibition of JAK-mediated IL15-induced Stat5 phosphorylation in BALB/c mouse CD8+ T cells by Phospho-Flow cytometry; type: cell-based; conditions: T-cell
[20] = Inhibition of JAK-mediated IL7-induced Stat5 phosphorylation in BALB/c mouse CD8+ T cells by Phospho-Flow cytometry; type: cell-based; conditions: T-cell
[21] = Inhibition of JAK-mediated IL4-induced Stat6 phosphorylation in BALB/c mouse CD8+ T cells by Phospho-Flow cytometry; type: cell-based; conditions: T-cell
[22] = Inhibition of JAK-mediated IL4-induced Stat5 phosphorylation in BALB/c mouse CD8+ T cells by Phospho-Flow cytometry; type: cell-based; conditions: T-cell
[23] = Inhibition of JAK-mediated IL6-induced Stat1 phosphorylation in BALB/c mouse CD11b-hi neutrophils by Phospho-Flow cytometry
[24] = Inhibition of JAK-mediated IL10-induced Stat3 phosphorylation in BALB/c mouse CD11b-hi neutrophils by Phospho-Flow cytometry
[25] = Inhibition of JAK-mediated interferon-gamma-induced Stat1 phosphorylation in BALB/c mouse CD11b-hi neutrophils by Phospho-Flow cytometry
[26] = Inhibition of JAK-mediated IL6-induced Stat3 phosphorylation in BALB/c mouse CD11b-hi neutrophils by Phospho-Flow cytometry
[27] = Inhibition of JAK-mediated IL15-induced Stat5 phosphorylation in BALB/c mouse CD11b-hi neutrophils by Phospho-Flow cytometry
[28] = Inhibition of JAK-mediated IL7-induced Stat5 phosphorylation in BALB/c mouse CD11b-hi neutrophils by Phospho-Flow cytometry
[29] = Inhibition of JAK-mediated IL4-induced Stat5 phosphorylation in BALB/c mouse CD11b-hi neutrophils by Phospho-Flow cytometry
[30] = Inhibition of JAK-mediated IL6-induced Stat1 phosphorylation in BALB/c mouse CD11b-int macrophages by Phospho-Flow cytometry
[31] = Inhibition of JAK-mediated IL10-induced Stat3 phosphorylation in BALB/c mouse CD11b-int macrophages by Phospho-Flow cytometry
[32] = Inhibition of JAK-mediated interferon-gamma-induced Stat1 phosphorylation in BALB/c mouse CD11b-int macrophages by Phospho-Flow cytometry
[33] = Inhibition of JAK-mediated IL6-induced Stat3 phosphorylation in BALB/c mouse CD11b-int macrophages by Phospho-Flow cytometry
[34] = Inhibition of JAK-mediated IL15-induced Stat5 phosphorylation in BALB/c mouse CD11b-int macrophages by Phospho-Flow cytometry
[35] = Inhibition of JAK-mediated IL7-induced Stat5 phosphorylation in BALB/c mouse CD11b-int macrophages by Phospho-Flow cytometry
[36] = Inhibition of JAK-mediated IL4-induced Stat6 phosphorylation in BALB/c mouse CD11b-int macrophages by Phospho-Flow cytometry
[37] = Inhibition of JAK-mediated IL4-induced Stat5 phosphorylation in BALB/c mouse B cells by Phospho-Flow cytometry; type: cell-based
[38] = Inhibition of JAK-mediated IL6-induced Stat1 phosphorylation in BALB/c mouse CD4+ T cells by Phospho-Flow cytometry; type: cell-based; conditions: T-cell
[39] = Inhibition of JAK-mediated IL10-induced Stat3 phosphorylation in BALB/c mouse CD4+ T cells by Phospho-Flow cytometry; type: cell-based; conditions: T-cell
[40] = Inhibition of JAK-mediated interferon-gamma-induced Stat1 phosphorylation in BALB/c mouse CD4+ T cells by Phospho-Flow cytometry; type: cell-based; conditions: T-cell

CC(C)(C)c1nc2c3ccc(F)cc3c3c(=O)[nH]ccc3c2[nH]1
Activity [1]: Active | IC50 [2]: < 20 µM | IC50 [3]: > 20 µM

C=C1C(=O)O[C@@H]2C[C@@H](C)[C@@H]3C=CC(=O)[C@@]3(C)[C@@H](O)[C@H]12
inhibition [4]: 25% | inhibition [5]: 25% | inhibition (MAP kinase p38): 25%

C=C1C(=O)O[C@@H]2C[C@@]3(C)CCC[C@H](C)C3=C[C@H]12
inhibition [4]: 25% | inhibition [5]: 25% | inhibition (MAP kinase p38): 25%

CC(=O)O[C@@H]1CO[C@H]2O[C@H]3[C@@H](C(C=O)=C[C@H](O)[C@@H]4C5=C(C(C)C)CC[C@]5(C)CC[C@@]34C)[C@@]2(O)C1=O
inhibition [4]: Active | inhibition [5]: > 65% | inhibition (MAP kinase p38): 25%

CC(=O)c1c(O)c(C)c(O)c(Cc2c(O)c3c(c(C(=O)/C=C/c4ccccc4)c2O)OC(C)(C)C=C3)c1O
inhibition [4]: 25% | inhibition [5]: > 65% | inhibition (MAP kinase p38): 25%

CC(C)=CC(=O)O[C@H]1[C@H]2[C@H](OC(=O)[C@H]2C)[C@H](O)[C@@H](C)[C@@H]2C=CC(=O)[C@]21C
inhibition [4]: 25% | inhibition [5]: > 65% | inhibition (MAP kinase p38): 25%

CC(C)c1oc(=O)cc2c1[C@@H](O)[C@H]1OC(=O)[C@@]3(C)[C@@H](O)[C@H]4O[C@H]4[C@@]2(C)[C@@H]13
inhibition [4]: inactive | inhibition [5]: inactive | inhibition (MAP kinase p38): > 65%

CC1CC(C)(O)CC(C(O)CC2CC(=O)NC(=O)C2)C1=O (stereo not drawn)
inhibition [4]: 25% | inhibition [5]: 25% | inhibition (MAP kinase p38): 25%

CC1OC(CC(=O)O)CC2=C1C(=O)c1c(O)cccc1C2=O (stereo not drawn)
inhibition [4]: 25% | inhibition [5]: > 65% | inhibition (MAP kinase p38): 25%

CC[C@H]1CN2CCc3cc(OC)c(OC)cc3[C@@H]2C[C@@H]1C[C@H]1NCCc2c1[nH]c1ccc(O)cc21
inhibition [4]: 25% | inhibition [5]: > 65% | inhibition (MAP kinase p38): 25%

CO[C@@H]1[C@@H](OC(=O)c2ccc(C)[nH]2)[C@@H](O)[C@@H](Oc2ccc3c(O)c(NC(=O)c4c[nH]c(C(=O)Nc5c(O)c6ccc(O[C@H]7OC(C)(C)[C@H](OC)[C@@H](OC(=O)c8ccc(C)[nH]8)[C@H]7O)c(C)c6oc5=O)c4C)c(=O)oc3c2C)OC1(C)C
inhibition [4]: inactive | inhibition [5]: inactive | inhibition (MAP kinase p38): inactive

C[C@H]1CC[C@@H]2[C@@H](C)[C@H]3[C@H](C[C@H]4[C@@H]5CC=C6C[C@@H](O[C@@H]7O[C@H](CO)[C@H](O)[C@H](O[C@@H]8O[C@H](CO)[C@@H](O)[C@H](O)[C@H]8O)[C@H]7O[C@H]7O[C@@H](C)[C@H](O)[C@@H](O)[C@H]7O)CC[C@]6(C)[C@H]5CC[C@]34C)N2C1
inhibition [4]: 25% | inhibition [5]: > 65% | inhibition (MAP kinase p38): 25%

C[S+]([O-])c1ccc(-c2nc(-c3ccc(F)cc3)c(-c3ccncc3)[nH]2)cc1 (stereo not drawn)
Activity [1]: Active

O=C1C=C2C(=CCOC2O)O1 (stereo not drawn)
inhibition [4]: 25% | inhibition [5]: > 65% | inhibition (MAP kinase p38): 25%

C/C=C/C1=C(Cl)C(=O)[C@H](Cl)[C@]1(O)C(=O)OC [CRYTOSPORIOPSIN]
IC50 [6]: < 20 µM | inhibition [4]: Active | inhibition [5]: > 65% | inhibition (MAP kinase p38): 25% | IC50 [2]: < 20 µM | IC50 [3]: < 20 µM | IC50 [7]: < 20 µM | IC50 [8]: < 20 µM | IC50 [9]: < 20 µM | IC50 [10]: < 20 µM | IC50 [11]: < 20 µM | IC50 [12]: < 20 µM | IC50 [13]: < 20 µM | IC50 [14]: < 20 µM | IC50 [15]: < 20 µM | IC50 [16]: < 20 µM | IC50 [17]: < 20 µM | IC50 [18]: < 20 µM | IC50 [19]: < 20 µM | IC50 [20]: < 20 µM | IC50 [21]: < 20 µM | IC50 [22]: < 20 µM | IC50 [23]: < 20 µM | IC50 [24]: < 20 µM | IC50 [25]: < 20 µM | IC50 [26]: < 20 µM | IC50 [27]: < 20 µM | IC50 [28]: < 20 µM | IC50 [29]: < 20 µM | IC50 [30]: < 20 µM | IC50 [31]: < 20 µM | IC50 [32]: < 20 µM | IC50 [33]: < 20 µM | IC50 [34]: < 20 µM | IC50 [35]: < 20 µM | IC50 [36]: < 20 µM

O=Nc1c(-c2c(O)[nH]c3ccccc23)[nH]c2ccccc12 [INDIRUBIN-3-MONOXIME]
IC50 [6]: < 20 µM | IC50 [2]: < 20 µM | IC50 [3]: < 20 µM | IC50 [7]: < 20 µM | IC50 [8]: < 20 µM | IC50 [9]: < 20 µM | IC50 [10]: < 20 µM | IC50 [37]: < 20 µM | IC50 [38]: < 20 µM | IC50 [39]: < 20 µM | IC50 [40]: < 20 µM | IC50 [11]: < 20 µM | IC50 [12]: < 20 µM | IC50 [13]: < 20 µM | IC50 [14]: < 20 µM | IC50 [15]: < 20 µM | IC50 [16]: < 20 µM | IC50 [17]: < 20 µM | IC50 [18]: < 20 µM | IC50 [19]: < 20 µM | IC50 [20]: < 20 µM | IC50 [21]: < 20 µM | IC50 [22]: < 20 µM | IC50 [23]: < 20 µM | IC50 [24]: < 20 µM | IC50 [25]: < 20 µM | IC50 [26]: < 20 µM | IC50 [27]: < 20 µM | IC50 [28]: < 20 µM | IC50 [29]: < 20 µM | IC50 [30]: < 20 µM | IC50 [31]: < 20 µM | IC50 [32]: < 20 µM | IC50 [33]: < 20 µM | IC50 [34]: < 20 µM | IC50 [35]: < 20 µM | IC50 [36]: < 20 µM

From ChEMBL document CHEMBL1212697, “High-content single-cell drug screening with phosphospecific flow cytometry” (Nat Chem Biol, 2008)
